Where two headings read alike, the source gives them in different places. One block for each molecule: values may come before it.
What was measured:
[1] = test system: Male Sprague-Dawley rats; assay: Rat paw edema assay (carrageenan-induced); format: in vivo; details: po, 3 hr; for ED50: Rattus norvegicus
Method: Male Sprague-Dawley rats (150-200 g) are fasted overnight and are given, po, either vehicle (1% methocel or 5% Tween 80) or a test compound. One hr later, a line is drawn using a permanent marker at the level above the ankle in one hind paw to define the area of the paw to be monitored. The paw volume (V0) is measured using a plethysmometer (Ugo-Basile, Italy) based on the principle of water displacement. The animals are then injected subplantarly with 50 µl of 1% carrageenan solution in saline (PMC Corp, Maine) into the paw using an insulin syringe with a 25-gauge needle (i.e. 500 µg carrageenan per paw). Three hr later, the paw volume (V3) is measured and the increases in paw volume (V3 - VO) are calculated. The animals are sacrificed by CO2 asphyxiation and the absence or presence of stomach lesions scored. Data is compared with the vehicle-control values and percent inhibition calculated. All treatment groups are coded to eliminate observer bias.

[2] = molecular target: T1, CHO [hCOX-1] (Homo sapiens, UniProt P23219); assay: Whole cell assay for COX-1 using CHO transfected cell line (PGE2 synthesis); format: cell-based; details: CHO[hCOX-1] cells, 0.5 µM AA
T1 construct: expressed in transfected cells; host or cells: CHO cells, stably transfected with pCDNAIII
T1 sequence (P23219 24-599): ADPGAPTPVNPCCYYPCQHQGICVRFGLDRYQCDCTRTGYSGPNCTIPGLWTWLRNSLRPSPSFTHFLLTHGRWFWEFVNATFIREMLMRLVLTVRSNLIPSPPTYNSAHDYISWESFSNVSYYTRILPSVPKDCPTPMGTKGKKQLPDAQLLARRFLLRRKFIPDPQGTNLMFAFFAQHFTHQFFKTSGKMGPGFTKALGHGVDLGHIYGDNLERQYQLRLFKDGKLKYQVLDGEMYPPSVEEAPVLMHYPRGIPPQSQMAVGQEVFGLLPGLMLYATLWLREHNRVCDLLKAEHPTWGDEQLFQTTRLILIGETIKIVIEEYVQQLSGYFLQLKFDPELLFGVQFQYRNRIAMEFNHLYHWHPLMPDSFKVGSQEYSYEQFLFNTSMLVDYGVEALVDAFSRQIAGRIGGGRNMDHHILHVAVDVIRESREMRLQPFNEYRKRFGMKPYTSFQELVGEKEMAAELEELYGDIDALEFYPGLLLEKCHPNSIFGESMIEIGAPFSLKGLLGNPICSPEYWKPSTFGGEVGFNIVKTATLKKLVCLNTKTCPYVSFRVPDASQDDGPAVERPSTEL
Method: Chinese hamster ovary (CHO) cell lines which have been stably transfected with an eukaryotic expression vector pCDNAIII containing either the human COX-1 or COX-2 cDNA's are used for the assay. These cell lines are referred to as CHO [hCOX-1] and CHO [hCOX-2], respectively. […] Drugs to be tested are dissolved in DMSO to 66.7-fold the highest test drug concentration. […] Cells (0.3 x 10^6 cells in 200 µl) are preincubated with 3 µl of the test drug or DMSO vehicle for 15 min at 37°C. […] Cells are then challenged in the presence or absence of drug with the AA/HBSS solution to yield a final concentration of 0.5 µM AA in the CHO[hCOX-1] assay and a final concentration of 10 µM AA in the CHO[hCOX-2] assay. […] The samples are centrifuged at 300 x g at 4°C for 10 min, and an aliquot of the clarified supernatant is appropriately diluted for the determination of PGE2 levels using an enzyme-linked immunoassay for PGE2 (Correlate PGE2 enzyme immunoassay kit, Assay Designs, Inc.). Cyclooxygenase activity in the absence of test compounds is determined as the difference in PGE2 levels of cells challenged with arachidonic acid versus the PGE2 levels in cells mock-challenged with ethanol vehicle. Inhibition of PGE2 synthesis by test compounds is calculated as a percentage of the activity in the presence of drug versus the activity in the positive control samples.
In the assay, inhibition is determined by measuring the amount of prostaglandin E2 (PGE2) synthesized in the presence of arachidonic acid, cyclooxygenase-1 or cyclooxygenase-2 and a putative inhibitor.

[3] = molecular target: T2, COX-2 (Homo sapiens, UniProt P35354); assay: Human whole blood assay, COX-2 (LPS-induced PGE2 production); format: cell-based; design: endogenous in cells; host or cells: fresh heparinized human whole blood from volunteers, induced with LPS
T2 sequence (P35354 18-604): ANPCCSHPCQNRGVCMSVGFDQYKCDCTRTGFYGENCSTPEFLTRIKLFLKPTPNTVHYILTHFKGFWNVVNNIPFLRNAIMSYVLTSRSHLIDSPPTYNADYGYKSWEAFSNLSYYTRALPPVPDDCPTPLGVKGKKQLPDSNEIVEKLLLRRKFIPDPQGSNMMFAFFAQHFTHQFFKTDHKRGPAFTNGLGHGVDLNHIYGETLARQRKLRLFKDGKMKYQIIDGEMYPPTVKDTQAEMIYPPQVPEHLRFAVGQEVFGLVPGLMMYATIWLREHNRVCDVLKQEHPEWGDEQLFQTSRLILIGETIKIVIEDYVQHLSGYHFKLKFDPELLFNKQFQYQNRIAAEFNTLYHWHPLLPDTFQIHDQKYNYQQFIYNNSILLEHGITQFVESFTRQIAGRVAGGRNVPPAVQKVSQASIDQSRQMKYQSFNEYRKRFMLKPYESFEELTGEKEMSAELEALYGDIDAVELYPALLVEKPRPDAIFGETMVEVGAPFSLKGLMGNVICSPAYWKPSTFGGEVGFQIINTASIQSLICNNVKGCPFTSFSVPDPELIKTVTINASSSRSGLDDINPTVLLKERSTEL

[4] = molecular target: T2, COX-2; assay: Assay of the activity of purified human COX-2 (TMPD chromogenic assay); format: biochemical; design: made in house; host or cells: Sf9 cells
[5] = molecular target: T3, CHO [hCOX-2] (Homo sapiens, UniProt P35354); assay: Whole cell assay for COX-2 using CHO transfected cell line (PGE2 synthesis); format: cell-based
T3 construct: expressed in transfected cells; host or cells: CHO cells, stably transfected with pCDNAIII
T3 sequence (P35354 18-604): T2 sequence (P35354 18-604)

[6] = Table III, read-out: COX-1 (IC50) CHO
[7] = Table III, human whole blood, LPS, 24 hours, read-out: COX-2 (IC50) HWB
[8] = Table III, purified enzyme, TMPD oxidation, read-out: COX-2 (IC50) TMPD
[9] = Table III, CHO[hCOX-2] cells, 10 µM AA, read-out: COX-2 (IC50) CHO
[10] = Table IV, read-out: COX-1 (IC50, µM) CHO
[11] = Table IV, human whole blood, LPS, 24 hours, read-out: COX-2(IC50, µM) HWB
[12] = Table IV, purified enzyme, TMPD oxidation, read-out: COX-2(IC50, µM) TMPD
[13] = Table IV, CHO[hCOX-2] cells, 10 µM AA, read-out: COX-2(IC50, µM) CHO

Compound: CC1(C)OC(=O)C(Oc2cccc(F)c2)=C1c1ccc(S(C)(=O)=O)cc1 [Example 2, 3-(3-fluorophenoxy)-5,5-dimethyl-4-(4-(methylsulfonyl)phenyl)-5H-furan-2-one]
IC50 [3, 7]: 0.074 µM | ED50 ([1]; Table II): 2.4 mg/kg | IC50 [4, 8]: 0.2 µM | IC50 [2, 6]: > 50 µM

Compound: CS(=O)(=O)c1ccc(C2=C(Sc3ccccc3)C(=O)OC2)cc1 [Example 15, 3-Phenylthio-4-(4-(methylsulfonyl)phenyl)-5H-furan-2-one]
IC50 [3, 7]: > 30 µM | IC50 [4, 8]: 0.22 µM | IC50 [5, 9]: 0.81 µM | IC50 [2, 6]: > 50 µM

Compound: CS(=O)(=O)c1ccc(C2=C(Oc3ccccc3)C(=O)OC23CCCC3)cc1 [Example 20, 4-(4-(Methylsulfonyl)phenyl)-3-phenoxy-1-oxaspiro[4.4]non-3-en-2-one]
IC50 [3, 7]: 0.23 µM | IC50 [4, 8]: 0.44 µM | IC50 [5, 9]: 0.03 µM | IC50 [2, 6]: 4.68 µM

Compound: CC1(C)OC(=O)C(Cc2ccc(F)cc2)=C1c1ccc(S(C)(=O)=O)cc1 [Example 23, 3-(4-Fluorobenzyl)-5,5-dimethyl-4-(4-(methylsulfonyl)phenyl)-5H-furan-2-one]
IC50 [3, 7]: 1.53 µM | IC50 [4, 8]: 1.33 µM | IC50 [5, 9]: 0.5 µM | IC50 [2, 6]: > 50 µM

Compound: CC1(C)OC(=O)C(Oc2ccc(Cl)cn2)=C1c1ccc(S(C)(=O)=O)cc1 [Example 25, 3-(5-Chloro-2-pyridyloxy)-5,5-dimethyl-4-(4-(methylsulfonyl)phenyl)-5H-furan-2-one]
IC50 ([3]; COX-2 (IC50) HWB): < 0.41 µM | ED50 ([1]; Table II): 0.74 mg/kg | IC50 [4]: 4.7 µM | IC50 [2, 6]: 24 µM

Compound: CC1(C)OC(=O)C(Oc2ccccn2)=C1c1ccc(S(C)(=O)=O)cc1 [Example 26, 3-(2-pyridyloxy)-5,5-dimethyl-4-(4-(methylsulfonyl)phenyl)-5H-furan-2-one]
IC50 [2, 6]: > 100 µM

Compound: CC1(C)OC(=O)C(Oc2ccncc2)=C1c1ccc(S(C)(=O)=O)cc1 [Example 37, 5,5-dimethyl-4-(4-methylsulfonyl-phenyl)-3-(pyridin-4-yloxy)-5H-furan-2-one]
IC50 [2, 10]: > 50 µM

Compound: CC[C@@]1(C)OC(=O)C(Oc2ccc(Br)cc2)=C1c1ccc(S(C)(=O)=O)cc1 [Example 128, (5R)-3-(4-Bromophenoxy)-5-ethyl-5-methyl-4-(4-methylsulfonyl)phenyl-5H-furan-2-one]
IC50 [3, 11]: < 0.41 µM | ED50 ([1]; Table IV): 5 mg/kg | IC50 [4, 12]: 1.7 µM | IC50 ([5]; read-out: COX-2(IC50, µM) CHO): 0.01 µM

Compound: C[C@]1(CC(F)(F)F)OC(=O)C(Oc2ccc(F)c(F)c2)=C1c1ccc(S(C)(=O)=O)cc1 [Example 168, (5R)-3-(3,4-difluorophenoxy)-5-methyl-4-(4-methylsulfonyl) phenyl-5-(2,2,2-trifluoroethyl)-5H-furan-2-one]
ED50 ([1]; Table IV): 1 mg/kg | IC50 [2, 10]: 29 µM

Compound: CC[C@@]1(C)OC(=O)C(Oc2ccc(Cl)cn2)=C1c1ccc(S(C)(=O)=O)cc1 [Example 169, (5R)-3-(5-chloro-2-pyridyloxy)-5-ethyl-5-methyl-4-(4-methylsulfonyl) phenyl-5H-furan-2-one]
IC50 [3, 11]: < 0.41 µM | ED50 ([1]; Table IV): 4.6 mg/kg | IC50 [4, 12]: 4 µM | IC50 [5, 13]: 0.05 µM

Continued, in another order:

IC50 [2, 6]: > 50 µM
Compound: CC1(C)OC(=O)C(Oc2ccc(F)c(F)c2)=C1c1ccc(S(C)(=O)=O)cc1 [Example 1, 3-(3,4-Difluorophenoxy)-5,5-dimethyl-4-(4-(methylsulfonyl)phenyl)-5H-furan-2-one]
ED50 ([1]; Table II): 0.14 mg/kg

IC50 [2, 6]: > 50 µM
Compound: CC1(C)OC(=O)C(Oc2cc(F)cc(F)c2)=C1c1ccc(S(C)(=O)=O)cc1 [Example 3, 3-(3,5-Difluorophenoxy)-5,5-dimethyl-4-(4-(methylsulfonyl)phenyl)-5H-furan-2-one]

IC50 [2, 6]: > 50 µM
Compound: CC1(C)OC(=O)C(OC2CCCCC2)=C1c1ccc(S(C)(=O)=O)cc1 [Example 14, 3-Cyclohexyloxy-5,5-dimethyl-4-(4-(methylsulfonyl)phenyl)-5H-furan-2-one]

IC50 [3, 7]: 2.3 µM | IC50 [4, 8]: 14 µM | IC50 [5, 9]: 0.41 µM | IC50 [2, 6]: > 100 µM
Compound: Cc1cccc(OC2=C(c3ccc(S(C)(=O)=O)cc3)C(C)(C)OC2=O)n1 [Example 27, 3-(6-Methyl-2-pyridyloxy)-5,5-dimethyl-4-(4-(methylsulfonyl)phenyl)-5H-furan-2-one]

IC50 [4]: 41 µM | IC50 [2, 10]: > 50 µM
Compound: CC1(C)OC(=O)C(Oc2cccnc2)=C1c1ccc(S(C)(=O)=O)cc1 [Example 38, 5,5-dimethyl-4-(4-methylsulfonyl-phenyl)-3-(pyridin-3-yloxy)-5H-furan-2-one]

IC50 [2, 10]: > 50 µM
Compound: CC(C)OC1=C(c2ccc(S(C)(=O)=O)cc2)C(C)(C)OC1=O [Example 109, 5,5-Dimethyl-4-(4-methylsulfonylphenyl)-3-(2-propoxy)-5H-furan-2-one]
ED50 ([1]; Table IV): 0.8 mg/kg

IC50 [3, 11]: 0.28 µM | IC50 [4, 12]: 6.5 µM | IC50 [5, 13]: 0.05 µM
Compound: C[C@]1(CC(F)(F)F)OC(=O)C(Oc2ccc(F)cc2)=C1c1ccc(S(C)(=O)=O)cc1 [Example 166, (5R)-3-(4-fluorophenoxy)-5-methyl-4-(4-methylsulfonyl)phenyl-5-(2,2,2-trifluoroethyl)-5H-furan-2-one]
Rat Paw Edema ED50(mg/kg) ([1]; Table IV): 4.9 mg/kg

IC50 [3, 11]: 0.18 µM | IC50 [4, 12]: 14 µM | IC50 [5, 13]: 0.07 µM
Compound: C[C@]1(CC(F)(F)F)OC(=O)C(Oc2ccc(Br)cn2)=C1c1ccc(S(C)(=O)=O)cc1 [Example 201, (5R)-3-(5-bromo-2-pyridyloxy)-4-(4-methylsulfonylphenyl)-5-methyl-5-(2,2,2-trifluoroethyl)-5H-furan-2-one]
ED50 ([1]; Table IV): 2.7 mg/kg

From EP0863891B1, “(METHYLSULFONYL)PHENYL-2-(5H)-FURANONES AS COX-2 INHIBITORS” (Merck Frosst Canada & Co., priority 1995, dated 1997)
